The values below come from US8691800B2, “Quinoline derivatives as antibacterial agents” (Janssen Pharmaceutica N.V., priority 2005, dated 2014).

The test system of data set [1] is Escherichia coli (ATCC1403). The data set can be described thus: Microtitre plate assay, IC90 for bacterial growth. The data set is classed as cell-based. The note with it: 90% inhibitory concentration for bacterial growth. The method, then:
(§1) The bacteria used in this study were grown overnight in flasks containing 100 ml Mueller-Hinton Broth (Becton Dickinson—cat. no. 275730) in sterile de-ionized water, with shaking, at 37° C. Stocks (0.5 ml/tube) were stored at 70° C. until use. Bacteria titrations were performed in microtiter plates and colony forming units (CFUs) were determined. In general, an inoculum level of approximately 100 CFUs was used for susceptibility testing.
(§2) Anti bacterial Susceptibility Testing: IC90 Determination
(§3) Flat-bottom, sterile 96-well plastic microtiter plates were filled with 180 μl of sterile deionized water, supplemented with 0.25% BSA. Subsequently, stock solutions (7.8× final test concentration) of compounds were added in 45 μl volumes in column 2. Serial five-fold dilutions (45 μl in 180 μl) were made directly in the microtiter plates from column 2 to reach column 11. Untreated control samples with (column 1) and without (column 12) inoculum were included in each microtiter plate. Depending on the bacteria type, approximately 10 to 60 CFU per well of bacteria inoculum (100 TCID50), in a volume of 100 μl in 2.8× Mueller-Hinton broth medium, was added to the rows A to H, except column 12. The same volume of broth medium without inoculum was added to column 12 in row A to H. The cultures were incubated at 37° C. for 24 hours under a normal atmosphere (incubator with open air valve and continuous ventilation). At the end of incubation, one day after inoculation, the bacterial growth was quantitated fluorometrically. Therefore resazurin (0.6 mg/ml) was added in a volume of 20 μl to all wells 3 hours after inoculation, and the plates were re-incubated overnight. A change in colour from blue to pink indicated the growth of bacteria. The fluorescence was read in a computer-controlled fluorometer (Cytofluor Biosearch) at an excitation wavelength of 530 nm and an emission wavelength of 590 nm. The % growth inhibition achieved by the compounds was calculated according to standard methods. The IC90 (expressed in μg/ml) was defined as the 90% inhibitory concentration for bacterial growth.

Data set [2] deals with Pseudomonas aeruginosa (ATCC27853). The data set can be described thus: Microtitre plate assay, IC90 for bacterial growth. Format: cell-based. The note with it: 90% inhibitory concentration for bacterial growth. The method, then: as §1, §2, §3
For data set [3], the system named is Enterococcus faecalis (ATCC29212). The data set can be described thus: Microtitre plate assay, IC90 for bacterial growth. Format: cell-based. The settings on record: 90% inhibitory concentration for bacterial growth. As to the method: as §1, §2, §3
The test system of data set [4] is Listeria monocytogenes (ATCC49594). The data set can be described thus: Microtitre plate assay, IC90 for bacterial growth. The data set is classed as cell-based. The note with it: 90% inhibitory concentration for bacterial growth. As to the method: as §1, §2, §3
Data set [5] relates to Bacillus subtilis (ATCC43639). The data set can be described thus: Microtitre plate assay, IC90 for bacterial growth. The settings on record: 90% inhibitory concentration for bacterial growth. The data set is classed as cell-based. As to the method:
as §1, §2, §3

The subject of data set [6] is Staphylococcus aureus (ATCC25923). The data set can be described thus: Microtitre plate assay, IC90 for bacterial growth. Format: cell-based. The settings on record: 90% inhibitory concentration for bacterial growth. The method, then:
as §1, §2, §3

In data set [7] the test system is Staphylococcus aureus (ATCC29213). The data set can be described thus: Microtitre plate assay, IC90 for bacterial growth. The data set is classed as cell-based. The note with it: 90% inhibitory concentration for bacterial growth, 24 hours at 37° C., resazurin. The method, then: as §1, §2, §3
For data set [8], the system named is Escherichia coli (ATCC35218). The data set can be described thus: Microtitre plate assay, IC90 for bacterial growth. The data set is classed as cell-based. The settings on record: 90% inhibitory concentration for bacterial growth. As to the method: as §1, §2, §3
In data set [9] the test system is Streptococcus pneumoniae (ATCC6305). The data set can be described thus: Microtitre plate assay, IC90 for bacterial growth. The data set is classed as cell-based. The settings on record: 90% inhibitory concentration for bacterial growth. The method, then: as §1, §2, §3
Data set [10] deals with Streptococcus pyogens (ATCC8668). The data set can be described thus: Microtitre plate assay, IC90 for bacterial growth. The settings on record: 90% inhibitory concentration for bacterial growth. The data set is classed as cell-based. The method, then:
as §1, §2, §3

In data set [11] the test system is Enterococcus faecalis (ATCC14506). The data set can be described thus: Microtitre plate assay, IC90 for bacterial growth. The data set is classed as cell-based. The settings on record: 90% inhibitory concentration for bacterial growth. As to the method: as §1, §2, §3
Data set [12] deals with Escherichia coli (ATCC25922). The data set can be described thus: Microtitre plate assay, IC90 for bacterial growth. Format: cell-based. The settings on record: 90% inhibitory concentration for bacterial growth, read-out: IC90 ECO 25922. As to the method:
as §1, §2, §3

The subject of data set [13] is Streptococcus mutans (ATCC33402). The data set can be described thus: Microtitre plate assay, IC90 for bacterial growth. The data set is classed as cell-based. The note with it: 90% inhibitory concentration for bacterial growth. As to the method:
as §1, §2, §3

Data set [14] deals with methicilline resistant Staphylococcus aureus (MRSA) (a clinical isolate from the University of Antwerp). The data set can be described thus: Microtitre plate assay, IC90 for bacterial growth. Format: cell-based. The settings on record: 90% inhibitory concentration for bacterial growth. As to the method:
as §1, §2, §3

Data set [15] relates to Staphylococcus aureus (ATCC43300). The data set can be described thus: Microtitre plate assay, IC90 for bacterial growth. The note with it: 90% inhibitory concentration for bacterial growth. The data set is classed as cell-based. The method, then: as §1, §2, §3

SMILES strings stand for the structures.

The compound `COc1nc2ccc(Cl)cc2cc1C(c1ccccc1)C1(c2cccc3ccccc23)CC[N+](C)(C)CO1.[I-]` (single isomer, unassigned) [Compound 15] registered a melting point of 211 °C. For the same compound, the “IC90 ECO 1403” value in data set [1] was 10.5 µg/mL. Besides, the “IC90 PAE 27853” value in data set [2] turned out to be 9.3 µg/mL. Also, the “IC90 EFA 29212” value in data set [3] came out at 2.1 µg/mL. The “IC90 LMO 49594” value in data set [4] is 2.1 µg/mL. Besides, the “IC90 BSU 43639” value in [5] came to 2.1 µg/mL. For the same compound, in data set [6], the “IC90 STA 25923” value came out at 2.1 µg/mL. Besides, the “IC90 STA 29213” value in [7] was 1.86 µg/mL. The “IC90 ECO 35218” value in [8] was found to be 41.6 µg/mL. In addition, the “IC90 SPN 6305” value in [9] is 2.3 µg/mL. The “IC90 SPY 8668” value in [10] was determined as 1.9 µg/mL. Also, the “IC90 EFA 14506” value in data set [11] was 2.1 µg/mL. For the same compound, the IC90 in data set [12] was found to be 10.5 µg/mL. In addition, in data set [13], the “IC90 SMU 33402” value turned out to be 1.9 µg/mL. In addition, the “IC90 STA RMETHIC” value in [14] stood at 1.9 µg/mL. In data set [15], the “IC90 STA 43300” value was 9.3 µg/mL.
